# According to patent US8349553B2, “Jasmonate based assays for identifying compounds that selectively inhibit mitochondrial bound hexokinases” (Ramot at Tel Aviv University Ltd., priority 2007, dated 2013):
# Columns and labels:
# [1] = tested on: mitochondria-bound hexokinase (mitochondrial fraction of B16 melanoma tumors); assay: Hexokinase detachment assay, mitochondrial fraction of B16 melanoma tumors; type: biochemical, murine; details: B16 tumor mitochondrial fraction; 30 minutes at 37° C.
# Experimental: Mitochondrial fraction was prepared by mechanical lysis and differential centrifugation. All stages were performed on ice. Cells or extracted tissues were washed with PBS and disrupted by homogenization in extraction buffer (Sucrose 250 mM, HEPES-NaOH 10 mM, pH 7.2) freshly supplemented with 0.1 mM EDTA and Protease Inhibitors cocktail (Sigma). For each gram of cells or tissue, 4 volumes of extraction buffer were applied. The homogenate volume was doubled with the extraction buffer, and tissue and cell debris as well as nuclei were pelleted by centrifugation of 1,000 g for 10 minutes. The supernatant was further spun at 13,000 g for 10 minutes twice. Endoplasmic reticulum layer was removed. The pellet, designated as the mitochondrial fraction, was suspended in the appropriate buffer, depending on the assay for which the mitochondrial fraction was prepared. Mitochondrial fractions were used immediately or stored at −196° C. […] Activity of hexokinase in the supernatant (i.e., activity of the detached hexokinase) was determined spectrophotometrically at 340 nm. […] Mitochondrial fractions isolated from different cancer cells, namely Molt-4 cells, BCL-1 leukemic cells and B16 melanoma tumors were incubated for 30 minutes at 37° C., and the activity of unbound hexokinase was measured and compared to the activity of spontaneously (control) detached hexokinase. […]
# [2] = tested on: HKI and HKII (mitochondrial fraction of CT-26 tumor); assay: Western blot of supernatants with anti-HKI and anti-HKII, CT-26 tumor mitochondrial fraction; type: biochemical, murine
# Experimental: For analysis of hexokinase levels, the experiments were performed similarly to hexokinase detachment assay described above, and unbound hexokinase in the supernatant fraction was extracted as described in Fingrut (2005). Samples were separated by sodium dodecylsulfate-polyacrylamide gel (7%) electrophoresis followed by immunoblotting. The blots were probed with specific anti-HKI or anti-HKII antibodies (1:300, Santa-Cruz Biotechnology, CA, USA). Hexokinase-antibody complexes were stained with HRP-conjugated antibody (1:10,000, Santa-Cruz Biotechnology, CA, USA). Enhanced chemiluminescence (ECL) reagent (Biological Industries, Beit Haemek, Israel) was added, and the blots were exposed to ECL film (Eastman Kodak, Rochester, N.Y., USA). In order to verify physical detachment of mitochondrial hexokinase, similar preparations were separated on SDS-PAGE, electroblotted to nitrocellulose membrane and probed with anti-HKI and anti-HKII antibodies.
# B16 melanoma = assay: Cellular ATP levels (CellTiter-Glo), B16; type: cell-based, murine; details: 60 minutes of exposure, various concentrations
# Experimental: The CellTiter-Glo™ Luminescent Cell Viability Assay (Promega, Madison, Wis., U.S.A.) was employed (Fingrut, 2005). Upon completion of a given experiment, plates were equilibrated to room temperature. CellTiter-Glo™ reagent containing luciferin and luciferase was added to each well and the plates were mixed on an orbital shaker for 2 minutes to induce cell lysis. In the presence of ATP, Mg^2+ and molecular oxygen, mono-oxidation of luciferin is catalyzed by luciferase, generating a luminescence signal. Cells were then incubated for 10 minutes at room temperature to stabilize the luminescence signal. Luminescence was recorded using Kodak digital science—Image station 440 CD. Luminescence is directly proportional to ATP concentration. ATP depletion (% of control) was calculated in the following way: {(luminescence of control cells−luminescence of drug-treated cells)/luminescence of control cells}×100. In order to test the correlation between cellular ATP levels and the release of hexokinase from mitochondrial fraction different cancer cells, namely Molt-4 cells, BCL-1 leukemic cells and B16 melanoma tumors were exposed to various methyl jasmonate concentrations. […] CT26 and Molt-4 cells were then seeded in 24 well plates. CT26 cells were allowed to adhere over night. Cells were exposed to methyl jasmonate (MJ; 3 mM) for 1 hour. Trypan blue exclusion test was performed and cells were counted.
# [3] = tested on: CT26 cells transfected with pcDNA3-HKII or pcDNA3
# Experimental: Cell death was determined by trypan blue exclusion. […] Alternatively, cytotoxicity was determined using hemacolor staining. Upon completion of a given experiment, cells were stained and the percentage of dead (detached) cells was determined spectrophotometrically.
# CT26 cells were transfected with pcDNA3-HKII or pcDNA3, using FuGene HD transfection reagent (Roche, Basel, Switzerland), according to the manufacturer's instruction followed by selection using G418.
# To examine the effect of hexokinase over-expression on methyl jasmonate action, CT26 cells were transfected with plasmids, pcDNA3-HKII or pcDNA3, encoding for hexokinase II over-expression and a control plasmid, respectively (Zaid, 2005). Cells were seeded in 96-well plates and allowed to adhere. Cells were exposed to methyl jasmonate for 60 minutes prior to ATP determination (FIG. […] 9B).
# lymphomas = details: mice; cited from earlier work
smiles,measurement,setting,value
CC/C=C\CC1C(=O)CCC1CC(=O)OC (centres unmarked) [methyl jasmonate],detachment of hexokinase (activity of unbound hexokinase compared to control),[1],detached hexokinase from mitochondrial fraction isolated from the three different cancer cells
same,physical release of HKI and HKII into supernatant (immunoblot),[2],release of both HKI and HKII were demonstrated
same,cellular ATP level,B16 melanoma,significant and dose-dependent decrease of cellular ATP
same,"cytotoxicity (hemacolor), hexokinase II over-expressing vs. control cells",[3],decreased in cells with higher expression of hexokinase II
same,prevention of the development of lymphomas,lymphomas,effective in preventing the development of lymphomas in mice
